Test results published in patent EP0768085A1, “ANTIBACTERIAL AGENT” (DAIICHI PHARMACEUTICAL CO., LTD., priority 1994, dated 1996).
Converted amounts (≈) assume the structure as drawn.

Legend:
Type in all cases: cell-based
[1] = system: Streptococcus aureus (TI-1); test: Antibacterial activity (IC), agar as in Example 8 (Example 16, Table 49); settings: 18 h
Procedure: (§1) The antibacterial action was evaluated by the inhibitory concentration (hereinafter abbreviated as IC) at which propagation of the bacteria cultured at 37°C for 18 hours was inhibited. Inhibition was determined by the turbidity of the medium. The expressions "IC≤100", "≤10", and "≤1" indicate that MIC-equivalent values obtained at the succesive […] dilution of the sample are 100-10 µg/ml, 10-1 µg/ml, and not more than 1 µg/ml, respectively. […] (In the subsequent Examples, the same rule applies correspondingly.) Table 39
(§2) A suitable amount of a sample was dissolved in dimethylsulfoxide (DMSO), after which the resulting solution was diluted with the same amount of sterilized distilled water to prepare a bulk sample of 1,000 µg/ml. Separately, a bacterial liquid for the test (methicillin-resistant Staphylococcus aureus (MRSA) isolated from humans) which had been cultured in Mueller-Hinton broth (product of DIFCO) was prepared and inoculated to a Mueller-Hinton agar (product of DIFCO) containing the sample so that the final inoculation amount of 10^6 CFU/ml was achieved. The final concentrations of the samples were 100, 10, and 1 µg/ml.
(§3) After culturing at 37°C for 18 hours, the antibacterial activity was evaluated in terms of IC in a manner similar to that described in Example 4.
In a manner similar to that described in Example 8, antibacterial activity of the invention compound was determined. The bacterium used for the test was […] aureus (TI-1).

Pasteurella from fish = test: Antibacterial activity (IC), agar as in Example 8, media with 1.5% NaCl, 25°C (Example 20, Tables 53-55); settings: for MIC: Pasteurella piscicida KP94-02
Procedure: as §1, §2, §3
(§4) In a manner similar to that described in Example 8, antibacterial activity of a variety of ketonitrile derivatives shown in Tables 53-55 was measured. The bacteria used for the test were Enterococcus and Pasteurella from fish. The culture conditions were such that the media contained 1.5% NaCl, and the culture temperature was 25°C.

Enterococcus from fish = test: as above; settings: for MIC: Enterococcus Seriolicida SE94-002
Procedure: as §1, §2, §3, §4

[2] = system: Pasteurella multocida (Kobe-6); test: Antibacterial activity (IC), agar as in Example 8 (Example 17, Table 50); settings: 18 h, origin pig
Procedure: as §1, §2, §3
In a manner similar to that described in Example 8, antibacterial activity of the invention compound was determined. The bacterium used for the test was Pasteurella Kobe-6 (origin: pig, Pasteurella multocida).

[3] = system: Staphylococcus aureus (209-P); test: Antibacterial activity (IC), agar as in Example 8 (Example 15, Table 48); settings: 18 h
Procedure: as §1, §2, §3
The bacterium used for the test was Staphylococcus aureus (209-P).

[4] = system: methicillin-resistant Staphylococcus aureus (MRSA) from humans; test: Antibacterial activity (IC), agar as in Example 8 (Example 19, Table 52); settings: 18 h
Procedure: as §1, §2, §3
In a manner similar to that described in Example 8, antibacterial activity of a variety of ketonitrile derivatives shown in Table 52 was measured. The bacterium used for the test was methicillin-resistant Staphylococcus aureus (MRSA) from humans.

[5] = Enterococcus Seriolicida KG86050
[6] = Enterococcus Seriolicida MS89060
[7] = Enterococcus Seriolicida MS89064
[8] = Enterococcus Seriolicida MS89066
[9] = Enterococcus Seriolicida MS89068
[10] = Enterococcus Seriolicida SE94-001
[11] = Enterococcus Seriolicida SE94-003
[12] = Enterococcus Seriolicida SE94-004
[13] = Enterococcus Seriolicida SE94-005

SMILES | MIC [1] [µg/mL] | MIC (Pasteurella from fish) [µg/mL] | IC (Enterococcus from fish; Enterococcus Seriolicida HI) | IC (Enterococcus from fish; [5]) | IC (Enterococcus from fish; [6]) | IC (Enterococcus from fish; [7]) | IC (Enterococcus from fish; [8]) | IC (Enterococcus from fish; [9]) | IC (Enterococcus from fish; [10]) | MIC (Enterococcus from fish) [µg/mL] | IC (Enterococcus from fish; [11]) | IC (Enterococcus from fish; [12]) | IC (Enterococcus from fish; [13]) | MIC [2] [µg/mL] | MIC [3] [µg/mL] | MIC ([4]; MRSA strain 891179) [µg/mL] | MIC ([4]; MRSA strain 891185) [µg/mL] | MIC ([4]; MRSA strain 891187) [µg/mL] | MIC ([4]; MRSA strain 891192) [µg/mL] | MIC ([4]; MRSA strain 900048) [µg/mL] | also measured
CC(Oc1cccc(Oc2ccc(C(F)(F)F)cc2Cl)c1)C(=O)C(C#N)c1ccccc1 (stereo not drawn) [Compound No. 105, 4-[3-(2-chloro-4-trifluoromethylphenoxy)phenoxy]-3-oxo-2-phenylpentanonitrile] | 1 to 10 (≈ 2.17 to 21.7 µM) | 10 to 100 (≈ 21.7 to 217 µM) | ≤10 (10-1 µg/ml) | ≤10 (10-1 µg/ml) | ≤10 (10-1 µg/ml) | ≤10 (10-1 µg/ml) | ≤10 (10-1 µg/ml) | ≤10 (10-1 µg/ml) | ≤10 (10-1 µg/ml) | 1 to 10 (≈ 2.17 to 21.7 µM) | ≤10 (10-1 µg/ml) | ≤10 (10-1 µg/ml) | ≤10 (10-1 µg/ml) | 10 to 100 (≈ 21.7 to 217 µM) | 1 to 10 (≈ 2.17 to 21.7 µM) | 1 to 10 (≈ 2.17 to 21.7 µM) | 1 to 10 (≈ 2.17 to 21.7 µM) | 1 to 10 (≈ 2.17 to 21.7 µM) | 1 to 10 (≈ 2.17 to 21.7 µM) | 1 to 10 (≈ 2.17 to 21.7 µM) | IC (Pasteurella from fish; Pasteurella piscicida KP94-04): ≤100 (MIC-equivalent values obtained at the succesive 2-fold dilution of the sample are 100-10 µg/ml); IC (Pasteurella from fish; Pasteurella piscicida KP94-05): ≤100 (MIC-equivalent values obtained at the succesive 2-fold dilution of the sample are 100-10 µg/ml); IC (Pasteurella from fish; Pasteurella piscicida KP94-06): ≤100 (MIC-equivalent values obtained at the succesive 2-fold dilution of the sample are 100-10 µg/ml); MIC ([4]; MRSA strain 900056): 1 to 10 µg/mL (≈ 2.17 to 21.7 µM)
CC(Oc1cccc(Oc2ccc(Br)cc2F)c1)C(=O)C(C#N)c1ccc(Cl)c(Cl)c1 (stereo not drawn) [Compound No. 109, 4-[3-(4-bromo-2-fluorophenoxy)phenoxy]-2-(3,4-dichlorophenyl)-3-oxopentanonitrile] | ≤ 1 | 1 to 10 (≈ 1.91 to 19.1 µM) | ≤10 (10-1 µg/ml) | ≤10 (10-1 µg/ml) | ≤10 (10-1 µg/ml) | ≤10 (10-1 µg/ml) | ≤10 (10-1 µg/ml) | ≤10 (10-1 µg/ml) | ≤10 (10-1 µg/ml) | 1 to 10 (≈ 1.91 to 19.1 µM) | ≤10 (10-1 µg/ml) | ≤10 (10-1 µg/ml) | ≤10 (10-1 µg/ml) | 1 to 10 (≈ 1.91 to 19.1 µM) | 1 to 10 (≈ 1.91 to 19.1 µM) | 1 to 10 (≈ 1.91 to 19.1 µM) | 1 to 10 (≈ 1.91 to 19.1 µM) | 1 to 10 (≈ 1.91 to 19.1 µM) | 1 to 10 (≈ 1.91 to 19.1 µM) | 1 to 10 (≈ 1.91 to 19.1 µM) | MIC ([4]; MRSA strain 900056): 1 to 10 µg/mL (≈ 1.91 to 19.1 µM)
CC(Oc1cccc(Oc2ccc(Br)cc2F)c1)C(=O)C(C#N)c1cccc(Cl)c1 (stereo not drawn) [Compound No. 110, 4-[3-(4-bromo-2-fluorophenoxy)phenoxy]-2-(3-chlorophenyl)-3-oxopentanonitrile] | 1 to 10 (≈ 2.05 to 20.5 µM) | 10 to 100 (≈ 20.5 to 205 µM) | ≤10 (10-1 µg/ml) | ≤10 (10-1 µg/ml) | ≤10 (10-1 µg/ml) | ≤10 (10-1 µg/ml) | ≤10 (10-1 µg/ml) | ≤10 (10-1 µg/ml) | ≤10 (10-1 µg/ml) | 1 to 10 (≈ 2.05 to 20.5 µM) | ≤10 (10-1 µg/ml) | ≤10 (10-1 µg/ml) | ≤10 (10-1 µg/ml) | 10 to 100 (≈ 20.5 to 205 µM) | 1 to 10 (≈ 2.05 to 20.5 µM) | 1 to 10 (≈ 2.05 to 20.5 µM) | 1 to 10 (≈ 2.05 to 20.5 µM) | 1 to 10 (≈ 2.05 to 20.5 µM) | 1 to 10 (≈ 2.05 to 20.5 µM) | 1 to 10 (≈ 2.05 to 20.5 µM) | IC (Pasteurella from fish; Pasteurella piscicida KP94-04): ≤100 (MIC-equivalent values obtained at the succesive 2-fold dilution of the sample are 100-10 µg/ml); IC (Pasteurella from fish; Pasteurella piscicida KP94-05): ≤100 (MIC-equivalent values obtained at the succesive 2-fold dilution of the sample are 100-10 µg/ml); IC (Pasteurella from fish; Pasteurella piscicida KP94-06): ≤100 (MIC-equivalent values obtained at the succesive 2-fold dilution of the sample are 100-10 µg/ml); MIC ([4]; MRSA strain 900056): 1 to 10 µg/mL (≈ 2.05 to 20.5 µM)
